Key:
[1] = biological target: T1, Human PDGFRβ, cytoplasmic domain (GST-PDGFRβ) (Homo sapiens, UniProt P09619); assay: Human PDGFRβ biochemical inhibition assay (off-chip Mobility Shift Assay)
T1 construct: made in house
Method in brief: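 GST-tagged cytoplasmic domain (aa 557-1106) from baculovirus was incubated 1 h at room temperature with compound, CSKtide, ATP at Km and Mg²⁺ in HEPES buffer, pH 7.5. Phosphorylated and unphosphorylated peptide were separated by off-chip mobility shift, and the product ratio P/(P+S) gave percent inhibition.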

[2] = biological target: T2, Human PDGFRα, cytoplasmic domain (GST-PDGFRα) (Homo sapiens, UniProt P16234); assay: Human PDGFRα biochemical inhibition assay (off-chip Mobility Shift Assay)
T2 construct: made in house
T2 sequence (P16234 550-1089 T674I): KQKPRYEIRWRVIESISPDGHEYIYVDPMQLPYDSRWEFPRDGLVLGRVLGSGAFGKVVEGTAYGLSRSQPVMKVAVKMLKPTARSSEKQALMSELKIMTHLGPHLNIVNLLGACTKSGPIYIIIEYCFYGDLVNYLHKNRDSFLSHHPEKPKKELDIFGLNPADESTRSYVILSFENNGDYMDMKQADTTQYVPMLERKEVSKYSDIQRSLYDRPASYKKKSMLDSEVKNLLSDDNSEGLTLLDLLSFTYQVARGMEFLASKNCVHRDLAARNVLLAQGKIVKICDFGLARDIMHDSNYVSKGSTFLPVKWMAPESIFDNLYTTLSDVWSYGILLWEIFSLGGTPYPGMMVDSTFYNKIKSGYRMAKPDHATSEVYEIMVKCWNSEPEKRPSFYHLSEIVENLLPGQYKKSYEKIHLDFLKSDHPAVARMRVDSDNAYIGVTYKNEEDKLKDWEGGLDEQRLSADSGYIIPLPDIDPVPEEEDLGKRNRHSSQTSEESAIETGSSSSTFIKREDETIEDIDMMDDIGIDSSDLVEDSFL

T1 sequence (P09619 with tags, fused parts or gaps): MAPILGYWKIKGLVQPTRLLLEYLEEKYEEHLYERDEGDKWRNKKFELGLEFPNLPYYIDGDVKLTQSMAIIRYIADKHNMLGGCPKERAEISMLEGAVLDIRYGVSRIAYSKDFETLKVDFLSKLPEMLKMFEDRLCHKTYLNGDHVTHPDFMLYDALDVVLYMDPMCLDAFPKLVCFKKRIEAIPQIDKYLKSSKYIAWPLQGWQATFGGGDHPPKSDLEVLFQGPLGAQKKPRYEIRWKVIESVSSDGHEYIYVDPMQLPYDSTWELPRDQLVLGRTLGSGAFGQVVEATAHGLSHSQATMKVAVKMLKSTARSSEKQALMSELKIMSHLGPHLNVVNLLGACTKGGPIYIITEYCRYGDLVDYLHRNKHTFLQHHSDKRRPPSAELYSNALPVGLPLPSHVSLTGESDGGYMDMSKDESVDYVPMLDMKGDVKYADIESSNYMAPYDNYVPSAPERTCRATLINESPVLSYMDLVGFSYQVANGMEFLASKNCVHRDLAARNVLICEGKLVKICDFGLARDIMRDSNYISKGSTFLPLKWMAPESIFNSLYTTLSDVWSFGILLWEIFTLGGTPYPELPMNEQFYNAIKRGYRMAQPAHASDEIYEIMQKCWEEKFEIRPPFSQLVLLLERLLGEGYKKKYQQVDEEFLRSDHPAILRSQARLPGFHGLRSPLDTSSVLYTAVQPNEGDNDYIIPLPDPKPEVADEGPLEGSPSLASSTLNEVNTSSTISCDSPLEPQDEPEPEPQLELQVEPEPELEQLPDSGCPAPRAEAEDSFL

| SMILES | IC50 [1] | IC50 [2] |
| --- | --- | --- |
| COc1ccc(-n2ncc3ncc(N[C@@H](C)c4cccc(NC(=O)c5cncc(C)c5)c4)nc32)cc1OC [Compound 185, (S)-N-(3-(1-((1-(3,4-dimethoxyphenyl)-1H-pyrazolo[3,4-b]pyrazin-6-yl)amino)ethyl)phenyl)-5-methylnicotinamide] | < 300 nM | < 300 nM |
| C[C@H](Nc1cnc2[nH]cc(-c3cnn(C)c3)c2n1)c1cccc(NC(=O)c2ccc(N3CCCC3)nc2)c1 [Compound 585, (S)-N-(3-(1-((7-(1-methyl-1H-pyrazol-4-yl)-5H-pyrrolo[2,3-b]pyrazin-2-yl)amino)ethyl)phenyl)-6-(pyrrolidin-1-yl) nicotinamide] | < 300 nM | < 300 nM |
| COc1ccc(C(=O)Nc2cccc([C@H](C)Nc3cnc4[nH]cc(-c5cnn(C)c5)c4n3)c2)cn1 [Compound 566, (S)-6-methoxy-N-(3-(1-((7-(1-methyl-1H-pyrazol-4-yl)-5H-pyrrolo[2,3-b]pyrazin-2-yl)amino)ethyl)phenyl) nicotinamide] | < 300 nM | < 300 nM |
| CCn1cc2ncc(N[C@@H](C)c3cc(NC(=O)c4ccc(CN5CCOCC5)c(Cl)c4)ccc3F)nc2n1 [Compound 427, (S)-3-chloro-N-(3-(1-((2-ethyl-2H-pyrazolo[3,4-b]pyrazin-6-yl)amino)ethyl)-4-fluorophenyl)-4-(morpholinomethyl)benzamide] | < 300 nM | < 300 nM |
| CCn1cc2ncc(N[C@@H](C)c3cccc(NC(=O)c4ccc(C(F)(F)F)c(C)c4)c3)nc2n1 [Compound 439, (S)-N-(3-(1-((2-ethyl-2H-pyrazolo[3,4-b]pyrazin-6-yl)amino)ethyl)phenyl)-3-methyl-4-(trifluoromethyl)benzamide] | < 300 nM | < 300 nM |
| Cc1cncc(C(=O)Nc2cccc([C@H](C)Nc3cncc4c3c(C)nn4-c3cnn(C)c3)c2)c1 [Compound 751, (S)-5-methyl-N-(3-(1-((3-methyl-1-(1-methyl-1H-pyrazol-4-yl)-1H-pyrazolo[3,4-c]pyridin-4-yl)amino)ethyl)phenyl)nicotinamide] | ≥ 1000 nM | ≥ 1000 nM |
| CCn1cc2ncc(N[C@@H](C)c3cccc(NC(=O)c4cnc(CO)s4)c3)nc2n1 [Compound 363, (S)-N-(3-(1-((2-ethyl-2H-pyrazolo[3,4-b]pyrazin-6-yl)amino)ethyl)phenyl)-2-(hydroxymethyl)thiazole-5-carboxamide] | ≥ 1000 nM | ≥ 1000 nM |
| C[C@H](Nc1cnc2cnn(C)c2n1)c1cccc(NC(=O)N2CCCC(C(F)(F)F)C2)c1 (stereo partly drawn) [Compound 54, N-(3-((S)-1-((1-methyl-1H-pyrazolo[3,4-b]pyrazin-6-yl)amino)ethyl)phenyl)-3-(trifluoromethyl)piperidine-1-carboxamide] | < 300 nM | < 300 nM |
| COC(=O)c1ccc(C(=O)Nc2cccc([C@H](C)Nc3cnc4cnn(C)c4n3)c2)cc1 [Compound 211, methyl (S)-4-((3-(1-((1-methyl-1H-pyrazolo[3,4-b]pyrazin-6-yl)amino)ethyl)phenyl)carbamoyl) benzoate] | < 300 nM | < 300 nM |
| C[C@H](Nc1cnc2[nH]ccc2n1)c1cc(NC(=O)c2ccc(C3CC3)nc2)ccc1F [Compound 599, (S)-N-(3-(1-((5H-pyrrolo[2,3-b]pyrazin-2-yl)amino)ethyl)-4-fluorophenyl)-6-cyclopropylnicotinamide] | < 300 nM | < 300 nM |
| C[C@H](Nc1cnc2[nH]ccc2n1)c1cc(NC(=O)c2ccc(OC(F)F)nc2)ccc1F [Compound 596, (S)-N-(3-(1-((5H-pyrrolo[2,3-b]pyrazin-2-yl)amino)ethyl)-4-fluorophenyl)-6-(difluoromethoxy)nicotinamide] | < 300 nM | < 300 nM |
| Cc1c[nH]c2ncc(N[C@@H](C)c3cccc(NC(=O)c4cnn(CCF)c4)c3)nc12 [Compound 575, (S)-1-(2-fluoroethyl)-N-(3-(1-((7-methyl-5H-pyrrolo[2,3-b]pyrazin-2-yl)amino)ethyl)phenyl)-1H-pyrazole-4-carboxamide] | < 300 nM | < 300 nM |
| Cc1cncc(C(=O)Nc2cccc([C@H](C)Nc3cnc4cc(F)ccc4n3)c2)c1 [Compound 40, (S)-N-(3-(1-((6-fluoroquinoxalin-2-yl)amino)ethyl)phenyl)-5-methylnicotinamide] | < 300 nM | < 300 nM |
| C[C@H](Nc1cnc2cnn(C)c2n1)c1cccc(NC(=O)c2ccc(C3CC3)nc2)c1 [Compound 116, (S)-6-cyclopropyl-N-(3-(1-((1-methyl-1H-pyrazolo[3,4-b]pyrazin-6-yl)amino)ethyl)phenyl)nicotinamide] | < 300 nM | < 300 nM |
| Cc1cc(C(=O)Nc2cccc([C@H](C)Nc3cnc4cnn(C)c4n3)c2)cnc1CN1CCOCC1 [Compound 239, (S)-5-methyl-N-(3-(1-((1-methyl-1H-pyrazolo[3,4-b]pyrazin-6-yl)amino)ethyl)phenyl)-6-(morpholinomethyl) nicotinamide] | < 300 nM | < 300 nM |
| CCn1cc2ncc(N[C@@H](C)c3cc(NC(=O)c4ccc(CN5CCOCC5)c(C)c4)ccc3F)nc2n1 [Compound 446, (S)-N-(3-(1-((2-ethyl-2H-pyrazolo[3,4-b]pyrazin-6-yl)amino)ethyl)-4-fluorophenyl)-3-methyl-4-(morpholinomethyl) benzamide] | < 300 nM | < 300 nM |
| CCn1cc2ncc(N[C@@H](C)c3cccc(NC(=O)c4ccc(C#N)cc4)c3)nc2n1 [Compound 346, (S)-4-cyano-N-(3-(1-((2-ethyl-2H-pyrazolo[3,4-b]pyrazin-6-yl)amino)ethyl)phenyl)benzamide] | 300 to 1000 nM | 300 to 1000 nM |
| C=Cc1ncc(C(=O)Nc2cccc([C@H](C)Nc3cnc4cnn(C)c4n3)c2)cc1C [Compound 245, (S)-5-methyl-N-(3-(1-((1-methyl-1H-pyrazolo[3,4-b]pyrazin-6-yl)amino)ethyl)phenyl)-6-vinylnicotinamide] | < 300 nM | < 300 nM |
| CCn1cc2ncc(N[C@@H](C)c3cc(NC(=O)c4ccc(CN5CCCC5)c(C)c4)ccc3C)nc2n1 [Compound 522, (S)-N-(3-(1-((2-ethyl-2H-pyrazolo[3,4-b]pyrazin-6-yl)amino)ethyl)-4-methylphenyl)-3-methyl-4-(pyrrolidin-1-ylmethyl)benzamide] | < 300 nM | < 300 nM |
| COc1ccc(Cn2ccc3ncc(N[C@@H](C)c4cccc(NC(=O)c5cncc(C)c5)c4)nc32)cc1OC [Compound 88, (S)-N-(3-(1-((5-(3,4-dimethoxybenzyl)-5H-pyrrolo [2,3-b]pyrazin-3-yl)amino)ethyl)phenyl)-5-methylnicotinamide] | ≥ 1000 nM | < 300 nM |
| CNc1ncc(C(=O)Nc2cccc([C@H](C)Nc3cnc4cnn(C)c4n3)c2)cc1C [Compound 130, (S)-5-methyl-N-(3-(1-((1-methyl-1H-pyrazolo[3,4-b]pyrazin-6-yl)amino)ethyl)phenyl)-6-(methylamino) nicotinamide] | < 300 nM | < 300 nM |
| CCn1cc2ncc(N[C@@H](C)c3cccc(NC(=O)c4ccc(C)o4)c3)nc2n1 [Compound 369, (S)-N-(3-(1-((2-ethyl-2H-pyrazolo[3,4-b]pyrazin-6-yl)amino)ethyl)phenyl)-5-methylfuran-2-carboxamide] | ≥ 1000 nM | ≥ 1000 nM |
| Cc1ccc(C(=O)Nc2cccc([C@H](C)Nc3cnc4cnn(C)c4n3)c2)cc1C [Compound 234, (S)-3,4-dimethyl-N-(3-(1-((1-methyl-1H-pyrazolo[3,4-b]pyrazin-6-yl)amino)ethyl)phenyl)benzamide] | < 300 nM | < 300 nM |
| Cc1cncc(C(=O)Nc2cccc([C@H](C)Nc3cnc4[nH]c(C5CC5)nc4c3)c2)c1 [Compound 601, (S)-N-(3-(1-((2-cyclopropyl-3H-imidazo[4,5-6]pyridin-6-yl)amino)ethyl)phenyl)-5-methylnicotinamide] | < 300 nM | < 300 nM |
| CCNc1ncc(C(=O)Nc2cccc([C@H](C)Nc3cnc4cnn(C)c4n3)c2)cc1C [Compound 194, (S)-6-(ethylamino)-5-methyl-N-(3-(1-((1-methyl-1H-pyrazolo[3,4-b]pyrazin-6-yl)amino)ethyl)phenyl) nicotinamide] | < 300 nM | < 300 nM |
| Cc1cncc(C(=O)Nc2cccc([C@H](C)Nc3cnc4ccn(-c5cnn(C)c5)c4n3)c2)c1 [Compound 86, (S)-5-methyl-N-(3-(1-((5-(1-methyl-1H-pyrazol-4-yl)-5H-pyrrolo[2,3-b]pyrazin-3-yl)amino)ethyl)phenyl) nicotinamide] | < 300 nM | < 300 nM |
| CCNc1ccc(C(=O)Nc2cccc([C@H](C)Nc3cnc4cn(CC)nc4n3)c2)cn1 [Compound 394, (S)-N-(3-(1-((2-ethyl-2H-pyrazolo[3,4-b]pyrazin-6-yl)amino)ethyl)phenyl)-6-(ethylamino)nicotinamide] | ≥ 1000 nM | < 300 nM |
| Cc1ccc(C(=O)Nc2cccc([C@H](C)Nc3cnc4cnn(C)c4n3)c2)cc1F [Compound 188, (S)-3-fluoro-4-methyl-N-(3-(1-((1-methyl-1H-pyrazolo[3,4-b]pyrazin-6-yl)amino)ethyl)phenyl)benzamide] | < 300 nM | < 300 nM |
| CCn1cc2ncc(N[C@@H](C)c3cc(NC(=O)Cc4ccc(OC)cn4)ccc3C)nc2n1 [Compound 698, (S)-N-(3-(1-((2-ethyl-2H-pyrazolo[3,4-b]pyrazin-6-yl)amino)ethyl)-4-methylphenyl)-2-(5-methoxypyridin-2-yl) acetamide] | 300 to 1000 nM | < 300 nM |
| CCn1cc2ncc(N[C@@H](C)c3cccc(NC(=O)c4cnc5[nH]nc(C)c5c4)c3)nc2n1 [Compound 61, (S)-N-(3-(1-((2-ethyl-2H-pyrazolo[3,4-b]pyrazin-6-yl)amino)ethyl)phenyl)-3-methyl-1H-pyrazolo[3,4-b]pyridine-5-carboxamide] | ≥ 1000 nM | 300 to 1000 nM |

— patent US20230102554A1 (GB002, INC., priority 2019, published 2023)
